Measured values published in patent US10681909B2, “Herbicidal triazoles” (FMC Corporation, priority 2014, dated 2020).

Columns and labels:
[1] = tested on: kochia; assay: Test D postemergence; type: in vivo, Kochia scoparia; conditions: scale 0 to 100
Text: (§1) Seeds of plant species selected from bluegrass (annual bluegrass, Poa annua), blackgrass (Alopecurus myosuroides), canarygrass (Phalaris minor), chickweed (common chickweed, Stellaria media), galium (catchweed bedstraw, Galium aparine), bromegrass, down (downy bromegrass, Bromus tectorum), Russian thistle (Salsola kali), field poppy (Papaver rhoeas), field violet (Viola arvensis), foxtail, green (green foxtail, Setaria viridis), deadnettle (henbit deadnettle, Lamium amplexicaule), ryegrass, Ital. (Italian ryegrass, Lolium multiflorum), kochia (Kochia scoparia), lambsquarters (Chenopodium album), oilseed rape (Brassica napus), pigweed (Amaranthus retroflexus), chamomile (scentless chamomile, Matricaria inodora), speedwell (bird's-eye speedwell, Veronica persica), barley, spring (spring barley, Hordeum vulgare), wheat, spring (spring wheat, Triticum aestivum), buckwheat, wild (wild buckwheat, Polygonum convolvulus), wild mustard (Sinapis arvensis), oat, wild (wild oat, Avena fatua), radish, wild (wild radish, Raphanus raphanistrum), […]), barley, winter (winter barley, Hordeum vulgare), and wheat, winter (winter wheat, Triticum aestivum) were planted into a silt loam soil and treated preemergence with test chemicals formulated in a non-phytotoxic solvent mixture which included a surfactant. At the same time, these species were planted in pots containing Sunshine Redi-Earth® planting medium comprising spaghnum peat moss, vermiculite, starter nutrients and dolomitic limestone and treated with postemergence applications of the test chemicals formulated in the same manner. Plants ranged in height from 2 to 18 cm (1- to 4-leaf stage). Treated plants and controls were maintained in a controlled growth environment for 14 to 21 d after which time all species were compared to controls and visually evaluated. […] A dash (-) response means no test result.

[2] = tested on: ragweed; assay: Test C preemergence; type: in vivo, Ambrosia elatior; conditions: for Ragweed plant response rating (0 to 100): Preemergence, visual rating after 13 to 15 d; for Plant response rating (scale of 0 to 100 where 0 is no effect and 100 is complete control): Ragweed, preemergence
Text: (§2) Seeds of plant species selected from blackgrass (Alopecurus myosuroides), ryegrass, Italian (Italian ryegrass, Lolium multiflorum), wheat (winter wheat, Triticum aestivum), galium (catchweed bedstraw, Galium aparine), corn (Zea mays), crabgrass, large (large crabgrass, Digitaria sanguinalis), foxtail, giant, (giant foxtail, Setaria faberii), johnsongrass (Sorghum halepense), lambsquarters (Chenopodium album), morningglory (Ipomoea coccinea), nutsedge, yellow (yellow nutsedge, Cyperus esculentus), pigweed (Amaranthus retroflexus), ragweed (common ragweed, Ambrosia elatior), soybean (Glycine max), barnyardgrass (Echinochloa crus-galli), oilseed rape (Brassica napus), waterhemp (common waterhemp, Amaranthus rudis), and velvetleaf (Abutilon theophrasti) were planted into a blend of loam soil and sand and treated preemergence with test chemicals formulated in a non-phytotoxic solvent mixture which included a surfactant. At the same time, plants selected from these crop and weed species and also chickweed (common chickweed, Stellaria media), oat, wild (wild oat, Avena fatua), and kochia (Kochia scoparia), were planted in pots containing Sunshine Redi-Earth® planting medium comprising spaghnum peat moss, vermiculite, starter nutrients and dolomitic limestone and treated with postemergence applications of test chemicals formulated in the same manner. Plants ranged in height from 2 to 18 cm (1- to 4-leaf stage) for postemergence treatments. […] A dash (-) response means no test result.

[3] = tested on: morningglory; assay: Test E preemergence; type: in vivo, Ipomoea coccinea; conditions: scale 0 to 100
Text: (§3) Seeds of plant species selected from corn (Zea mays), soybean (Glycine max), lambsquarters (Chenopodium album), poinsettia, wild (wild poinsettia, Euphorbia heterophylla), pigweed, palmer (palmer pigweed, Amaranthus palmeri), waterhemp (common waterhemp, Amaranthus rudis), surinam grass (Brachiaria decumbens), crabgrass, large (large crabgrass, Digitaria sanguinalis), crabgrass, Brazilian (Brazilian crabgrass, Digitaria horizontalis), panicum, fall (fall panicum, Panicum dichotomiflorum), foxtail, giant (giant foxtail, Setaria faberii), foxtail, green (green foxtail, Setaria viridis), goosegrass (Eleusine indica), johnsongrass (Sorghum halepense), ragweed (common ragweed, Ambrosia elatior), barnyardgrass (Echinochloa crus-galli), sandbur (southern sandbur, Cenchrus echinatus), arrowleaf sida (Sida rhombifolia), ryegrass, Italian (Italian ryegrass, Lolium multiflorum), dayflower, VA (Virginia dayflower, Commelina virginica), field bindweed (Convolvulus arvensis), cocklebur (common cocklebur, Xanthium strumarium), morningglory (Ipomoea coccinea), nightshade (eastern black nightshade, Solanum ptycanthum), kochia (Kochia scoparia), nutsedge, yellow (yellow nutsedge, Cyperus esculentus), smartweed (ladysthumb smartweed, Polygonum persicaria), velvetleaf (Abutilon theophrasti), horseweed (Conyza canadensis), and beggarticks (hairy beggarticks, Bidens pilosa), were planted into a silt loam soil and treated preemergence with test chemicals formulated in a non-phytotoxic solvent mixture which included a surfactant.
(§4) At the same time, plants from these crop and weed species and also waterhemp_RES1, (ALS & Triazine resistant common waterhemp, Amaranthus rudis), and waterhemp_RES2, (ALS & HPPD resistant common waterhemp, Amaranthus rudis) were planted in pots containing Sunshine Redi-Earth® planting medium comprising spaghnum peat moss, vermiculite, starter nutrients and dolomitic limestone were treated with postemergence applications of test chemicals formulated in the same manner. Plants ranged in height from 2 to 18 cm for postemergence treatments (1- to 4-leaf stage). Treated plants and controls were maintained in a greenhouse for 14 to 21 d, after which time all species were compared to controls and visually evaluated. Plant response ratings, summarized in Table E, are based on a scale of 0 to 100 where 0 is no effect and 100 is complete control. A dash (-) response means no test result.

[4] = tested on: kochia; assay: Test D preemergence; type: in vivo, Kochia scoparia; conditions: scale 0 to 100
Text: as §1

[5] = tested on: morningglory; assay: Test C preemergence; type: in vivo, Ipomoea coccinea; conditions: for Plant response rating (scale of 0 to 100 where 0 is no effect and 100 is complete control): Morningglory, preemergence; for Morningglory plant response rating (0 to 100): Preemergence, visual rating after 13 to 15 d
Text: as §2

[6] = tested on: crabgrass, Brazilian; assay: Test E preemergence; type: in vivo, Digitaria horizontalis; conditions: Brazil, scale 0 to 100
Text: as §3, §4

[7] = tested on: speedwell; assay: Test D postemergence; type: in vivo, Veronica persica; conditions: scale 0 to 100
Text: as §1

[8] = tested on: sandbur; assay: Test E preemergence; type: in vivo, Cenchrus echinatus; conditions: scale 0 to 100
Text: as §3, §4

[9] = tested on: poinsettia, wild; assay: Test E preemergence; type: in vivo, Euphorbia heterophylla; conditions: scale 0 to 100
Text: as §3, §4

[10] = tested on: windgrass; assay: Test D postemergence; type: in vivo, Apera spica-venti; conditions: scale 0 to 100
Text: as §1

SMILES | Plant response rating: Kochia ([1]; 31 g ai/ha) | Plant response rating: Kochia ([1]; 62 g ai/ha) | Plant response rating: Kochia ([1]; 125 g ai/ha) | Plant response rating: Kochia ([1]; 250 g ai/ha) | Ragweed plant response rating (0 to 100) ([2]; 31 g ai/ha) | Ragweed plant response rating (0 to 100) ([2]; 62 g ai/ha) | Plant response rating (scale of 0 to 100 where 0 is no effect and 100 is complete control) ([2]; 125 g ai/ha) | Plant response rating (scale of 0 to 100 where 0 is no effect and 100 is complete control) ([2]; 250 g ai/ha) | Plant response rating ([3]; 125 g ai/ha) | Plant response rating: Kochia ([4]; 62 g ai/ha) | Plant response rating: Kochia ([4]; 125 g ai/ha) | Plant response rating: Kochia ([4]; 250 g ai/ha) | Plant response rating (scale of 0 to 100 where 0 is no effect and 100 is complete control) ([5]; 125 g ai/ha) | Plant response rating (scale of 0 to 100 where 0 is no effect and 100 is complete control) ([5]; 250 g ai/ha) | Morningglory plant response rating (0 to 100) ([5]; 31 g ai/ha) | Morningglory plant response rating (0 to 100) ([5]; 62 g ai/ha) | Plant response rating ([6]; 62 g ai/ha) | Plant response rating ([6]; 125 g ai/ha) | Plant response rating: Speedwell ([7]; 31 g ai/ha) | Plant response rating: Speedwell ([7]; 62 g ai/ha) | also measured
CCOc1nc(-c2ccc(F)cc2)nn1Cc1ccnc(C(F)(F)F)c1 [Compound 8, 4-[[5-ethoxy-3-(4-fluorophenyl)-1H-1,2,4-triazol-1-yl]methyl]-2-(trifluoromethyl)pyridine] | 75 | 80 | 85 | 80 | 75 | 85 | 90 | 90 | 100 | 100 | 100 | 100 | 98 | 100 | 85 | 100 | 100 | 100 | 100 | 100 | Plant response rating ([3]; 62 g ai/ha): 70; Plant response rating: Speedwell ([7]; 125 g ai/ha): 100; Plant response rating: Speedwell ([7]; 250 g ai/ha): 100; Plant response rating ([8]; 62 g ai/ha): 60; Plant response rating ([8]; 125 g ai/ha): 98; Plant response rating ([9]; 62 g ai/ha): 70; Plant response rating ([9]; 125 g ai/ha): 95; Plant response rating: Windgrass ([10]; 31 g ai/ha): 40; Plant response rating: Windgrass ([10]; 62 g ai/ha): 60; Plant response rating: Windgrass ([10]; 125 g ai/ha): 75; Plant response rating: Windgrass ([10]; 250 g ai/ha): 85
CCc1nc(-c2ccc(C(F)(F)F)cc2)nn1Cc1ccnc(C(F)(F)F)c1 [Compound 1, 4-[[5-ethyl-3-[4-(trifluoromethyl)phenyl]-1H-1,2,4-triazol-1-yl]methyl]-2-(trifluoromethyl)pyridine] | 65 | 75 | 80 | 80 | 35 | 50 | 60 | 70 | 60 | 70 | 100 | 100 | 55 | 90 | 20 | 55 | 98 | 98 | 100 | 100 | Plant response rating ([3]; 16 g ai/ha): 10; Plant response rating ([3]; 31 g ai/ha): 40; Plant response rating ([3]; 250 g ai/ha): 100; Plant response rating ([6]; 250 g ai/ha): 100; Plant response rating: Speedwell ([7]; 125 g ai/ha): 100; Plant response rating: Speedwell ([7]; 250 g ai/ha): 100; Plant response rating ([8]; 16 g ai/ha): 0; Plant response rating ([8]; 31 g ai/ha): 10; Plant response rating ([8]; 62 g ai/ha): 20; Plant response rating ([8]; 125 g ai/ha): 40; Plant response rating ([8]; 250 g ai/ha): 50; Plant response rating ([9]; 16 g ai/ha): 10; Plant response rating ([9]; 31 g ai/ha): 30; Plant response rating ([9]; 62 g ai/ha): 40; Plant response rating ([9]; 125 g ai/ha): 40; Plant response rating ([9]; 250 g ai/ha): 50; Plant response rating: Windgrass ([10]; 31 g ai/ha): 15; Plant response rating: Windgrass ([10]; 62 g ai/ha): 20; Plant response rating: Windgrass ([10]; 125 g ai/ha): 30; Plant response rating: Windgrass ([10]; 250 g ai/ha): 60
